Tests used:
vasopressin V1a receptor = biological target: T1, vasopressin V1a receptor (Homo sapiens, UniProt P37288); experiment: Inhibition of phosphatidylinositol turnover; format: cell-based; details: hV1a cells, [3H]inositol phosphates, versus 10 nM AVP
T1 construct: host or cells: CHO cells
Source text: Inhibition of Phosphatidylinositol Turnover.
The physiological effects of vasopressin are mediated through specific G-protein coupled receptors. The vasopressin V1a receptor is coupled to the Gq/G11 family of G proteins and mediates phosphatidylinositol turnover. The agonist or antagonist character of the compounds of the invention may be determined by their ability to inhibit vasopressin-mediated turnover of phosphatidylinositol by the procedure described in the following paragraphs.
Three days prior to the assay, near-confluent cultures of hV1a cells were dissociated and seeded in 6-well tissue culture plates, about 100 wells being seeded from each 75 cm^2 flask (equivalent to 12:1 split ratio). Each well contained 1 mL of growth medium with 2 μCi of [^3H]myo-inositol (American Radiolabeled Chemicals, St. Louis, Mo., USA).
All assays were in triplicate except for basal and 10 nM AVP (both n=6). AVP ((arginine vasopressin), Peninsula Labs, Belmont, Calif., USA (#8103)) was dissolved in 0.1N acetic acid. Test agents were dissolved in DMSO and diluted in DMSO to 200 times the final test concentration. […] The order of incubations was randomized. Incubations were initiated by removing the prelabeling medium, washing the monolayer once with 1 mL of 0.9% NaCl, and transferring the contents of the assay tubes to corresponding wells. The plates were incubated for 1 hour at 37° C. Incubations were terminated by removing the incubation medium and adding 500 μL of ice cold 0.5% (w/v) trichloroacetic acid and allowing the wells to stand for 15 min.
BioRad Poly-Prep Econo-Columns were packed with 0.3 mL of AG 1 X-8 100-200 formate form resin. Resin was mixed 1:1 with water and 0.6 mL added to each column. Columns were then washed with 10 mL water. Scintillation vials (20 mL) were placed under each column. For each well, the contents were transferred to a minicolumn, after which the well was washed with 0.5 mL distilled water, which was also added to the minicolumn. The columns were then washed twice with 5 mL of 5 mM myo-inositol to elute free inositol. Aliquots (1 mL) were transferred to 20 mL scintillation vials and 10 mL of Beckman Ready Protein Plus added. After the myo-inositol wash was complete, empty scintillation vials were placed under the columns, and [^3H]inositol phosphates were eluted with three additions of 1 mL 0.5 M ammonium formate containing 0.1 N formic acid. Elution conditions were optimized to recover inositol mono-, bis-, and trisphosphates, without eluting the more metabolically inert tetrakis-, pentakis-, and hexakis-phosphates. […] Inositol lipids were measured by adding 1 mL of 2% sodium dodecyl sulfate (SDS) to each well, allowing the wells to stand for at least 30 min., and transferring the solution to 20 mL scintillation vials, to which 10 mL Beckman Ready Protein Plus scintillation fluid was then added. Samples were counted in a Beckman LS 3801 liquid scintillation counter for 10 min. Total inositol incorporation for each well was calculated as the sum of free inositol, inositol phosphates, and inositol lipids.
Concentration-response curves for AVP and concentration-inhibition curves for test agents versus 10 nM AVP were analyzed by nonlinear least-squares curve-fitting to a 4-parameter logistic function. […] The curve-fitting was weighted under the assumption that the standard deviation was proportional to dpm of radioactivity. […] Inositol phosphates were expressed as dpm per 10^6 dpm of total inositol incorporation. […]

human V1a receptor = biological target: T2, human V1a receptor (Homo sapiens, UniProt P37288); experiment: Human vasopressin V1a receptor binding assay; details: hV1a cell line (CHO), competition with 1 nM 3H-AVP, 45 minutes at 37° C.; read-out: V1a BINDING AFFINITY (IC50 (nM))
T2 construct: host or cells: CHO cells
Method: Human Vasopression V1a Receptor Binding Assay.
A cell line expressing the human V1a receptor in CHO cells (henceforth referred to as the hV1a cell line) was obtained from Dr. Michael Brownstein, NIMH, Bethesda, Md., USA. The hV1a cDNA sequence is described by Thibonnier et al., Journal of Biological Chemistry, 269, 3304-3310 (1994), and the expression method was the same as described by Morel et al. (1992). The hV1a cell line was grown in alpha-MEM with 10% fetal bovine serum and 250 ug/ml G418 (Gibco, Grand Island, N.Y., USA). For competitive binding assay, hV1a cells were plated into 6-well culture plate at 1:10 dilution from a confluency flask, and maintained in culture for at least two days. Culture medium was then removed, cells were washed with 2 ml binding buffer (25 mM Hepes, 0.25% BSA, 1×DMEM, PH=7.0). To each well, 990 μl binding buffer containing 1 nM 3H-AVP was added, and followed by 10 μl series diluted Example compounds dissolved in DMSO. […] 100 nM cold AVP (Sigma) was used to assess non-specific binding. Cells were incubated for 45 minutes at 37° C., assay mixture was removed and each well was washed three times with PBS (pH=7.4). 1 ml 2% SDS was added per well and plates were let sit for 30 minutes. The whole content in a well was transferred to a scintillation vial. Each well was rinsed with 0.5 ml PBS which was then added to the corresponding vial. Scintillation fluid (Ecoscint, National Diagnostics, Atlanta, Ga.) was then added at 3 ml per vial. Samples were counted in a liquid scintillation counter (Beckman LS3801). IC50 values were calculated by Prism Curve fitting software.
All of the alkanedioic esters and amides exemplified in the foregoing examples were tested in this assay described of Example 201.

T1 sequence (P37288 whole entry): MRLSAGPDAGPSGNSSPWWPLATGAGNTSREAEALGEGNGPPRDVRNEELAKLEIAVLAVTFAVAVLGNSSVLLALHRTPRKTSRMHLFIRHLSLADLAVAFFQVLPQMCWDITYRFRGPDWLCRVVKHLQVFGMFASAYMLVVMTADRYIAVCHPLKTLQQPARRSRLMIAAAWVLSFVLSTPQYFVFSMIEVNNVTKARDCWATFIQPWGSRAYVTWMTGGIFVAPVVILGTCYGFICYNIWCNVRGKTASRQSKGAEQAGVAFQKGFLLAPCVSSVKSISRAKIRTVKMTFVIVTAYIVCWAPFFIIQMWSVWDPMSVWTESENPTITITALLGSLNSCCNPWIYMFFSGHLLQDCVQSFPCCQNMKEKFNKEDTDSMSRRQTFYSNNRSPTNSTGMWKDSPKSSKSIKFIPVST
T2 sequence (P37288 whole entry): as above

agonist or antagonist character by inhibition of vasopressin-mediated turnover of phosphatidylinositol (vasopressin V1a receptor)	IC50 (human V1a receptor) [nM]	SMILES
vasopressin V1a antagonists		O=C(NCc1cccc(C(F)(F)F)c1)C(CCC(=O)N1CCC(N2CCCCC2)CC1)N1C(=O)C(N2C(=O)OCC2c2ccccc2)C1C=Cc1ccccc1 (single isomer, unassigned) [Example 88]
vasopressin V1a antagonists	2.43	O=C(NCc1cccc(C(F)(F)F)c1)[C@@H](CC(=O)N1CCC(N2CCCCC2)CC1)N1C(=O)[C@@H](N2C(=O)OC[C@@H]2c2ccccc2)[C@H]1/C=C/c1ccccc1 [Example 133]
vasopressin V1a antagonists	3.1	O=C(NCc1cccc(C(F)(F)F)c1)[C@H](CC(=O)N1CCC(N2CCCCC2)CC1)N1C(=O)[C@@H](N2C(=O)OC[C@@H]2c2ccccc2)[C@H]1/C=C/c1ccccc1 [Example 44]
vasopressin V1a antagonists	0.49	O=C(NCc1cccc(C(F)(F)F)c1)C(CCC(=O)N1CCN(C2CCCCC2)CC1)N1C(=O)C(N2C(=O)OCC2c2ccccc2)C1C=Cc1ccccc1 (single isomer, unassigned) [Example 110]
vasopressin V1a antagonists	1.9	O=C(NCc1cccc(C(F)(F)F)c1)[C@H](CCC(=O)N1CCN(CCc2ccccc2)CC1)N1C(=O)[C@@H](N2C(=O)OC[C@@H]2c2ccccc2)[C@H]1C=Cc1ccccc1 (single isomer, unassigned) [Example 35]
	~100	O=C(NCc1cccc(C(F)(F)F)c1)[C@H](CCC(=O)N1CCN(CC(=O)N2CCCC2)CC1)N1C(=O)[C@@H](N2C(=O)OC[C@@H]2c2ccccc2)[C@H]1/C=C/c1ccccc1 [Example 101]
